EC50 data for 18 molecules are collected here from patent publication US20250136606A1, “MODULATORS OF TRPML, THEIR COMPOSITIONS AND METHODS OF USE” (Caraway Therapeutics, Inc., priority 2021, published 2025).

Like-named read-outs stand apart in the source and are kept apart here. A value given as a limit tells only on which side of the number the result lay.

Assay type in all cases: cell-based
One test concerns the target T1, TRPML2 (Homo sapiens, UniProt Q8IZK6).
T1 construct: expressed in transfected cells
T1 sequence (Q8IZK6 1-566): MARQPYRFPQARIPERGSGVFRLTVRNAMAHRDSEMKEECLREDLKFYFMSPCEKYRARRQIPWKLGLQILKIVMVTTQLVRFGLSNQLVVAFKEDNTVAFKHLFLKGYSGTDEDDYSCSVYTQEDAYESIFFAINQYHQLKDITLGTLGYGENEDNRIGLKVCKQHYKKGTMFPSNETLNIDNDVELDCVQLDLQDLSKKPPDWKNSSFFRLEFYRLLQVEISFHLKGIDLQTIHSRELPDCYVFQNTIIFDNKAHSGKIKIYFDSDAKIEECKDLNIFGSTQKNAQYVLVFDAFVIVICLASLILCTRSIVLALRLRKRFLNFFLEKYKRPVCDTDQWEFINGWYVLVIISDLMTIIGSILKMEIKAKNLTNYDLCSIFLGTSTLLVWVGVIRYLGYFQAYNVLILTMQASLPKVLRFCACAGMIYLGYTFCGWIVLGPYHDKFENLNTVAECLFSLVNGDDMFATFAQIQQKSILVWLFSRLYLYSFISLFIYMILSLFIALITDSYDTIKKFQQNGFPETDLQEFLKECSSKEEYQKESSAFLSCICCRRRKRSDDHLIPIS
The test can be described thus: Fluorescent TRPML2 assay (performed as for TRPML1, substituting the TRPML2 subtype). An outline of the steps: (§1)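 HEK-293 Trex, dox-induced (0.5 ug/mL), mutated for surface expression. Fluo4-AM 1 micromolar load ~60 min, dark; buffer modified Ringer's, 10 mM Ca. Cpds 20 micromolar–6 nanomolar final, half-log, n=3. Read ex 480/em 540; % activity vs controls; EC50 nonlinear fit.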

The target of the next test is TRPML1 (Homo sapiens, UniProt Q9GZU1). As to the kind of experiment: Fluorescent TRPML1 assay (Fluo4-AM calcium fluorescence in doxycycline-induced HEK-293 Trex cells). An outline of the steps:
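HEK-293 Trex cells stably expressing surface-directed mutant human TRPML1, induced with 0.5 µg/mL doxycycline overnight, were loaded with 1 µM Fluo4-AM and added to compound (6 nM–20 µM final, half-log steps, triplicate) in Ringer's with 10 mM calcium. Fluorescence ex 480/em 540; EC50 by non-linear regression versus plate controls.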

The target in another test is T2, TRPML3 (Homo sapiens, UniProt Q8TDD5).
T2 construct: expressed in transfected cells
T2 sequence (Q8TDD5 1-553): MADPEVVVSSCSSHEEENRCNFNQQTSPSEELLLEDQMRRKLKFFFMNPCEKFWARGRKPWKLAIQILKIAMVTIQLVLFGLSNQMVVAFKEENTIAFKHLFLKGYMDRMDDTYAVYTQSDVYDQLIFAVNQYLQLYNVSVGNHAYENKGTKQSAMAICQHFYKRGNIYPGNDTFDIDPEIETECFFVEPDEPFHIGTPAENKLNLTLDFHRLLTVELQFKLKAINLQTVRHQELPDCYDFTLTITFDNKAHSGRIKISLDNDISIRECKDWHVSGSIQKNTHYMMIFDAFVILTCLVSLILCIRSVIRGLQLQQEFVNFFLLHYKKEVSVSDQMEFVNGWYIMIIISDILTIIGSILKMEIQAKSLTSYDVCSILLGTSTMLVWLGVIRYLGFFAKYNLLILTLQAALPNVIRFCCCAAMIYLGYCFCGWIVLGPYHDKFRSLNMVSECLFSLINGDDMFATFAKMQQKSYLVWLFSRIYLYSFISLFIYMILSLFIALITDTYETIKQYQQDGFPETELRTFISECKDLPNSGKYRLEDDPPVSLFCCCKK
As to the kind of experiment: Fluorescent TRPML3 assay (performed as for TRPML1, substituting the TRPML3 subtype). An outline of the steps: as §1

Sequence of TRPML1 (Q9GZU1 whole entry L15A/L16A/L577A/L578A, form open): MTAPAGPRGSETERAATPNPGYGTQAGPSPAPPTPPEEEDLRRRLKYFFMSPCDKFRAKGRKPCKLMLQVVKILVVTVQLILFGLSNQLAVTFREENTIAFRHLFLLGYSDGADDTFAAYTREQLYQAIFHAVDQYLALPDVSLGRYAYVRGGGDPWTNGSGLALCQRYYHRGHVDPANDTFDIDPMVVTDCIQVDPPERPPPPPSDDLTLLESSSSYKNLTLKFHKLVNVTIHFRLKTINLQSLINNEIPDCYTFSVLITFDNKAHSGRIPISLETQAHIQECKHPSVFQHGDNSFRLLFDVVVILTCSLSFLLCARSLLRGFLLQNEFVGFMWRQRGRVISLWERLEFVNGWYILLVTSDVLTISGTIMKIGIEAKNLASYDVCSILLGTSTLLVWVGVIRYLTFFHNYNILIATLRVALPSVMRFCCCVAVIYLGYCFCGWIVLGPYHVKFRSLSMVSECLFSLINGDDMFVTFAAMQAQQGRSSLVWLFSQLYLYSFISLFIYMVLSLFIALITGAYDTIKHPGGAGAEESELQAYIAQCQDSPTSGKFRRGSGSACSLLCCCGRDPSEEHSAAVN

For the molecule `C[C@H]1CN(C(=O)OC(C)(C)C)CCN1c1ncnc2c1c(C1=CCOCC1)cn2-c1cc(F)cc(F)c1` [Compound 473, tert-butyl (S)-4-(7-(3,5-difluorophenyl)-5-(3,6-dihydro-2H-pyran-4-yl)-7H-pyrrolo[2,3-d]pyrimidin-4-yl)-3-methylpiperazine-1-carboxylate], the EC50 (usually the concentration giving half of the maximal effect) at TRPML2 (fluorescent calcium assay) lay in the range of 500 to 2000 nM; at TRPML1 (fluorescent calcium assay), 100 to 500 nM; at TRPML3 (fluorescent calcium assay), 100 to 500 nM.
Regarding `C[C@H]1CN(C(=O)OC(C)(C)C)CCN1c1ncnc2c1c(N1CCC(C)(C)C1)cn2-c1cc(C#N)ccn1` [Compound 405, tert-butyl (S)-4-(7-(4-cyanopyridin-2-yl)-5-(3,3-dimethylpyrrolidin-1-yl)-7H-pyrrolo[2,3-d]pyrimidin-4-yl)-3-methylpiperazine-1-carboxylate], the EC50 on TRPML2 (fluorescent calcium assay), on TRPML1 (fluorescent calcium assay) and on TRPML3 (fluorescent calcium assay) was < 100 nM throughout.
For `C[C@@H]1CN(c2ncnc3c2c(C2CC2)cn3-c2cccnc2)[C@@H](C)CN1C(=O)OC(C)(C)C` [Compound 168, tert-butyl (2R,5S)-4-(5-cyclopropyl-7-(pyridin-3-yl)-7H-pyrrolo[2,3-d]pyrimidin-4-yl)-2,5-dimethylpiperazine-1-carboxylate], the EC50 on TRPML2 (fluorescent calcium assay) is > 2000 nM; on TRPML1 (fluorescent calcium assay) it was 500 to 2000 nM; on TRPML3 (fluorescent calcium assay), 500 to 2000 nM.
On to `C[C@@H]1CN(c2ncnc3c2c(C(F)F)cn3-c2cccc(F)c2)[C@@H](C)CN1C(=O)OC(C)(C)C` [Compound 695, tert-butyl (2R,5S)-4-(5-(difluoromethyl)-7-(3-fluorophenyl)-7H-pyrrolo[2,3-d]pyrimidin-4-yl)-2,5-dimethylpiperazine-1-carboxylate], for which the EC50 at TRPML2 was 100 to 500 nM; at TRPML1, < 100 nM; on TRPML3, < 100 nM.
Consider `C[C@@H]1CN(c2ncnc3c2c(-c2ccccc2F)cn3-c2cnn(C)c2)[C@@H](C)CN1C(=O)OC(C)(C)C(F)(F)F` [Compound 186, 1,1,1-trifluoro-2-methylpropan-2-yl (2R,5S)-4-(5-(2-fluorophenyl)-7-(1-methyl-1H-pyrazol-4-yl)-7H-pyrrolo[2,3-d]pyrimidin-4-yl)-2,5-dimethylpiperazine-1-carboxylate], for which the EC50 on TRPML2 (fluorescent calcium assay) was 100 to 500 nM; at TRPML1 (fluorescent calcium assay), < 100 nM; on TRPML3 (fluorescent calcium assay), < 100 nM.
With `Cc1cn(-c2cccc(Cl)c2)c2ncnc(N3C[C@@H](C)N(C(=O)OC(C)(C)C)C[C@@H]3C)c12` [Compound 671, tert-butyl (2R,5S)-4-(7-(3-chlorophenyl)-5-methyl-7H-pyrrolo[2,3-d]pyrimidin-4-yl)-2,5-dimethylpiperazine-1-carboxylate], the results for the EC50 on TRPML2, at TRPML1 and on TRPML3 were 100 to 500 nM, < 100 nM and < 100 nM, respectively.
As to `C[C@H]1CN(C(=O)OC(C)(C)C)CCN1c1ncnc2c1c(-c1ccccc1F)cn2-c1cnnc(C#N)c1` [Compound 448, tert-butyl (S)-4-(7-(6-cyanopyridazin-4-yl)-5-(2-fluorophenyl)-7H-pyrrolo[2,3-d]pyrimidin-4-yl)-3-methylpiperazine-1-carboxylate], the EC50 on TRPML2 (fluorescent calcium assay) was 100 to 500 nM; on TRPML1 (fluorescent calcium assay) it was < 100 nM; on TRPML3 (fluorescent calcium assay), < 100 nM.
Turning to `Cc1nccnc1-c1cn(-c2cc(F)cc(F)c2)c2ncnc(N3CCN(C(=O)OC(C)C)C[C@@H]3C)c12` [Compound 249, Isopropyl (S)-4-(7-(3,5-difluorophenyl)-5-(3-methylpyrazin-2-yl)-7H-pyrrolo[2,3-d]pyrimidin-4-yl)-3-methylpiperazine-1-carboxylate], the figures for the EC50 on TRPML2 (fluorescent calcium assay), on TRPML1 (fluorescent calcium assay) and at TRPML3 (fluorescent calcium assay) were > 2000 nM, > 2000 nM and 500 to 2000 nM, respectively.
For the molecule `C[C@@H]1CN(c2nccc3c2c(C2CC2)cn3-c2cc(F)cc(F)c2)CCN1C(=O)OC(C)(C)C` [Compound 418, tert-butyl (R)-4-(3-cyclopropyl-1-(3,5-difluorophenyl)-1H-pyrrolo[3,2-c]pyridin-4-yl)-2-methylpiperazine-1-carboxylate], the values for the concentration for a half-maximal effect (EC50) at TRPML2 (fluorescent calcium assay), on TRPML1 (fluorescent calcium assay) and on TRPML3 (fluorescent calcium assay) were 100 to 500 nM, < 100 nM and < 100 nM, respectively.
For the molecule `C[C@H]1CN(C(=O)OC(C)(C)C)CCN1c1ncnc2c1c(C1CC1)cn2-c1cc(C#N)ccn1` [Compound 260], the EC50 at TRPML2 (fluorescent calcium assay), on TRPML1 (fluorescent calcium assay) and on TRPML3 (fluorescent calcium assay) was < 100 nM each time.
As for `C[C@H]1CN(C(=O)OC(C)(C)C)CCN1c1ncnc2c1c(C1COC1)cn2-c1cc(F)cc(F)c1` [Compound 475, tert-butyl (S)-4-(7-(3,5-difluorophenyl)-5-(oxetan-3-yl)-7H-pyrrolo[2,3-d]pyrimidin-4-yl)-3-methylpiperazine-1-carboxylate], the EC50 is > 2000 nM on TRPML2 (fluorescent calcium assay), 500 to 2000 nM on TRPML1 (fluorescent calcium assay) and 100 to 500 nM at TRPML3 (fluorescent calcium assay).
Regarding `C[C@H]1CN(C(=O)OC(C)(C)C)CCN1c1ncnc2c1c(-c1cnn(C)c1)cn2-c1cccc(OC(F)(F)F)c1` [Compound 321, tert-butyl (S)-3-methyl-4-(5-(1-methyl-1H-pyrazol-4-yl)-7-(3-(trifluoromethoxy)phenyl)-7H-pyrrolo[2,3-d]pyrimidin-4-yl)piperazine-1-carboxylate], the EC50 on TRPML2 (fluorescent calcium assay) was > 2000 nM; on TRPML1 (fluorescent calcium assay), 500 to 2000 nM; at TRPML3 (fluorescent calcium assay) it was 500 to 2000 nM.
As to `CC(C)OC(=O)N1CCN(c2ncnc3c2c(-c2ccccc2F)cn3-c2cc(C#N)ccn2)[C@@H](C)C1` [Compound 347, isopropyl (S)-4-(7-(4-cyanopyridin-2-yl)-5-(2-fluorophenyl)-7H-pyrrolo[2,3-d]pyrimidin-4-yl)-3-methylpiperazine-1-carboxylate], the EC50 at TRPML2 (fluorescent calcium assay), at TRPML1 (fluorescent calcium assay) and at TRPML3 (fluorescent calcium assay) was < 100 nM throughout.
In the case of `COc1cc(C#N)cc(-n2cc(C3CC3)c3c(N4CCN(C(=O)OC(C)(C)C)C[C@@H]4C)ncnc32)c1` [Compound 302, tert-butyl (S)-4-(7-(3-cyano-5-methoxyphenyl)-5-cyclopropyl-7H-pyrrolo[2,3-d]pyrimidin-4-yl)-3-methylpiperazine-1-carboxylate], the values for the EC50 on TRPML2 (fluorescent calcium assay), at TRPML1 (fluorescent calcium assay) and on TRPML3 (fluorescent calcium assay) were > 2000 nM, 500 to 2000 nM and 100 to 500 nM, respectively.
In the case of `C[C@@H]1CN(c2ncnc3c2c(C(F)(F)F)cn3-c2cc(F)ccn2)[C@@H](C)CN1C(=O)OC1(C)CC1` [Compound 659, 1-methylcyclopropyl (2R,5S)-4-(7-(4-fluoropyridin-2-yl)-5-(trifluoromethyl)-7H-pyrrolo[2,3-d]pyrimidin-4-yl)-2,5-dimethylpiperazine-1-carboxylate], the EC50 at TRPML2 is > 2000 nM; on TRPML1, < 100 nM; on TRPML3, 100 to 500 nM.
Take `C[C@@H]1CN(c2ncnc3c2c(C(F)(F)F)cn3-c2cc(F)cc(F)c2)[C@@H](C)CN1C(=O)OC(C)(C)C` [Compound 492]: the EC50 on TRPML2 (fluorescent calcium assay) is 100 to 500 nM; at TRPML1 (fluorescent calcium assay), < 100 nM; at TRPML3 (fluorescent calcium assay), < 100 nM.
`C[C@H]1CN(C(=O)OC(C)(C)C)CCN1c1ncnc2c1c(N1CCC[C@@H]1CO)cn2-c1cccc(Cl)c1` [Compound 312, tert-butyl (S)-4-(7-(3-chlorophenyl)-5-((R)-2-(hydroxymethyl)pyrrolidin-1-yl)-7H-pyrrolo[2,3-d]pyrimidin-4-yl)-3-methylpiperazine-1-carboxylate]: the EC50 is 500 to 2000 nM on TRPML2 (fluorescent calcium assay), 100 to 500 nM on TRPML1 (fluorescent calcium assay) and < 100 nM on TRPML3 (fluorescent calcium assay).
On to `Cc1cn(-c2cc(C#N)ccn2)c2ncnc(N3CCN(C(=O)OC(C)(C)C)C[C@@H]3C)c12` [Compound 476, tert-butyl (S)-4-(7-(4-cyanopyridin-2-yl)-5-methyl-7H-pyrrolo [2,3-d]pyrimidin-4-yl)-3-methylpiperazine-1-carboxylate], for which the EC50 on TRPML2 (fluorescent calcium assay), on TRPML1 (fluorescent calcium assay) and at TRPML3 (fluorescent calcium assay) was < 100 nM in each case.
